Test results reported in US5789431A, “Naphthoquinone antitumor compound and method” (The University of North Carolina at Chapel Hill, priority 1996, dated 1998).

What was measured:
LOX1MVI = test: in vitro melanoma cell growth inhibition (NCI screen)
MALME-3M = test: as above
M19-MEL = test: as above
SK-MEL-2 = test: as above
SK-MEL-5 = test: as above
UACC-257 = test: as above
UACC-62 = test: as above
CCRF-CEM = test: in vitro leukemia cell growth inhibition (NCI screen)
HL-60(TB) = test: as above
K-562 = test: as above
MOLT-4 = test: as above
SF-539 = test: in vitro CNS cancer cell growth inhibition (NCI screen)
COLO-205 = test: in vitro colon cancer cell growth inhibition (NCI screen)
DLD-1 = test: as above
HCT-116 = test: as above
SW 620 = test: as above
ACHN = test: in vitro renal cancer cell growth inhibition (NCI screen)
RXF-631 = test: as above
UO-31 = test: as above
OVCAR-3 = test: in vitro ovarian cancer cell growth inhibition (NCI screen)
OVCAR-4 = test: as above; conditions: OVACR-4
HOP-92 = test: in vitro non-small cell lung cancer cell growth inhibition (NCI screen)
NCI-H23 = test: as above
NCI-H522 = test: as above
RPMI-8226 = test: in vitro leukemia cell growth inhibition (NCI screen)
SNB-75 = test: in vitro CNS cancer cell growth inhibition (NCI screen)
NCI-H460 = test: in vitro non-small cell lung cancer cell growth inhibition (NCI screen)
M14 = test: in vitro melanoma cell growth inhibition (NCI screen)
SK-MEL-28 = test: as above
MCF-7 = test: in vitro breast cancer cell growth inhibition (NCI screen)
MDA-MB-435 = test: as above
MDA-N = test: as above
OVCAR-5 = test: in vitro ovarian cancer cell growth inhibition (NCI screen)
human tumor cell lines = type: cell-based
SF-268 = test: in vitro CNS cancer cell growth inhibition (NCI screen)
SF-295 = test: as above
SNB-19 = test: as above
U 251 = test: as above
HCT-15 = test: in vitro colon cancer cell growth inhibition (NCI screen)
786-0 = test: in vitro renal cancer cell growth inhibition (NCI screen)
RXF-393 = test: as above
HOP-62 = test: in vitro non-small cell lung cancer cell growth inhibition (NCI screen)
SR = test: in vitro leukemia cell growth inhibition (NCI screen)
KM 12 = test: in vitro colon cancer cell growth inhibition (NCI screen)
IGROV1 = test: in vitro ovarian cancer cell growth inhibition (NCI screen)
HOP-18 = test: in vitro non-small cell lung cancer cell growth inhibition (NCI screen)
LXFL 529 = test: as above
XF-498 = test: in vitro CNS cancer cell growth inhibition (NCI screen)
SN12C = test: in vitro renal cancer cell growth inhibition (NCI screen)
NCI-H266 = test: in vitro non-small cell lung cancer cell growth inhibition (NCI screen)
TK-10 = test: in vitro renal cancer cell growth inhibition (NCI screen)
PC-3 = test: in vitro prostate cancer cell growth inhibition (NCI screen)
EKVX = test: in vitro non-small cell lung cancer cell growth inhibition (NCI screen)

Compound	cytotoxicity log GI50 (MALME-3M) [M]	cytotoxicity log GI50 (M19-MEL) [M]	cytotoxicity log GI50 (SK-MEL-2) [M]	cytotoxicity log GI50 (UACC-257) [M]	cytotoxicity log GI50 (UACC-62) [M]	cytotoxicity log GI50 (CCRF-CEM) [M]	cytotoxicity log GI50 (HL-60(TB)) [M]	cytotoxicity log GI50 (MOLT-4) [M]	cytotoxicity log GI50 (SF-539) [M]	cytotoxicity log GI50 (DLD-1) [M]	cytotoxicity log GI50 (HCT-116) [M]	cytotoxicity log GI50 (RXF-631) [M]	cytotoxicity log GI50 (OVCAR-3) [M]	cytotoxicity log GI50 (OVCAR-4) [M]	cytotoxicity log GI50 (HOP-92) [M]	cytotoxicity log GI50 (NCI-H522) [M]	cytotoxicity log GI50 (RPMI-8226) [M]	cytotoxicity log GI50 (SNB-75) [M]	cytotoxicity log GI50 (SK-MEL-28) [M]	cytotoxicity log GI50 (U 251) [M]	other results
COc1ccc(CNC2=C(NC(C)=O)C(=O)c3ccccc3C2=O)cc1 [Compound 41]	-5.08	-5.02	-5.04	-5.06	-5.11	-5.06	-5.77	-5.43	-5.13	-5.07	-5.29	-5.19	-5.09	-5.09	-5.18	-5.86					cytotoxicity log GI50 (LOX1MVI): -5.07 M; cytotoxicity log GI50 (SK-MEL-5): -5.13 M; cytotoxicity log GI50 (K-562): -5.11 M; cytotoxicity log GI50 (COLO-205): -5.03 M; cytotoxicity log GI50 (SW 620): -5.09 M; cytotoxicity log GI50 (ACHN): -5.68 M; cytotoxicity log GI50 (UO-31): -5.02 M; cytotoxicity log GI50 (NCI-H23): -5.17 M
CCn1c(Cc2ccc(F)cc2)nc2c1C(=O)c1ccccc1C2=O [Compound 66]	-4.94	-5.02		-5.10		-5.08	-5.33		-4.88			-4.82			-4.97	-5.06	-4.94	-4.80			cytotoxicity log GI50 (ACHN): -4.85 M; cytotoxicity log GI50 (UO-31): -5.33 M; cytotoxicity log GI50 (NCI-H460): -4.90 M
COC(=O)CCC(=O)NC1=C(Nc2ccccc2)C(=O)c2ccccc2C1=O [Compound 54]	-5.76		-5.41	-5.56	-5.75		-5.46		-5.11				-5.52						-5.59		cytotoxicity log GI50 (M14): -5.71 M; cytotoxicity log GI50 (MCF-7): -5.75 M; cytotoxicity log GI50 (MDA-MB-435): -5.67 M; cytotoxicity log GI50 (MDA-N): -5.69 M; cytotoxicity log GI50 (OVCAR-5): -5.41 M
NC1=C(NC(=O)Cc2ccccc2F)C(=O)c2ccccc2C1=O [Compound 3b]	-4.87	-5.35	-4.84	-4.53	-4.42				-4.57	-4.78			-5.08		-4.65	-4.67		-4.73		-4.44	cytotoxicity against tumor cells (in words) (human tumor cell lines; cancer cell line panel): inactive against all representative cancer cell lines; cytotoxicity log GI50 (SF-268): -4.46 M; cytotoxicity log GI50 (SF-295): -4.49 M; cytotoxicity log GI50 (SNB-19): -4.45 M; cytotoxicity log GI50 (HCT-15): -4.62 M; cytotoxicity log GI50 (786-0): -4.57 M; cytotoxicity log GI50 (RXF-393): -4.46 M; cytotoxicity log GI50 (HOP-62): -4.59 M
O=C(Cc1ccccc1F)NC1=C(Cl)C(=O)c2ccccc2C1=O [Compound 2i, 2-(2-Fluorophenyl)acetamido-3-chloro-1,4-naphthoguinone]		-6.36	-6.21		-6.48	-6.54	-6.55	-6.60	-6.62		-6.37			-6.22		-6.67	-6.44	-6.33	-6.34	-6.48	GI50 (human tumor cell lines; Homo sapiens, cancer cell panel, general / most cell lines, read-out: logGI50 values in the cancer cell line panel (converted)): 25.1 to 2510 nM; cytotoxicity log GI50 (M14): -6.29 M; cytotoxicity log GI50 (K-562): -6.53 M; cytotoxicity log GI50 (SR): -6.32 M; cytotoxicity log GI50 (KM 12): -6.29 M; cytotoxicity log GI50 (IGROV1): -6.17 M; cytotoxicity log GI50 (HOP-18): -6.18 M; cytotoxicity log GI50 (NCI-H23): -6.25 M; cytotoxicity log GI50 (NCI-H460): -6.15 M; cytotoxicity log GI50 (LXFL 529): -6.40 M
CCC(c1ccc(F)cc1)c1nc2c(n1CC)C(=O)c1ccccc1C2=O (stereo not drawn) [Compound 65]			-4.77		-4.95		-4.74	-4.73		-5.69		-4.71			-4.75		-4.68			-4.71	cytotoxicity log GI50 (SR): -4.73 M; cytotoxicity log GI50 (XF-498): -4.70 M; cytotoxicity log GI50 (RXF-393): -4.83 M; cytotoxicity log GI50 (SN12C): -4.90 M; cytotoxicity log GI50 (NCI-H266): -4.82 M
CCNC1=C(NC(=O)CCl)C(=O)c2ccccc2C1=O [Compound 44]											-4.74		-4.75	-4.77		-4.82			-4.75		cytotoxicity log GI50 (SK-MEL-5): -4.78 M; cytotoxicity log GI50 (KM 12): -4.77 M; cytotoxicity log GI50 (RXF-393): -4.78 M; cytotoxicity log GI50 (SN12C): -4.75 M; cytotoxicity log GI50 (TK-10): -4.75 M; cytotoxicity log GI50 (MDA-N): -4.81 M; cytotoxicity log GI50 (PC-3): -4.80 M; cytotoxicity log GI50 (EKVX): -4.80 M; cytotoxicity log GI50 (HOP-62): -4.78 M
